In ChEMBL document CHEMBL6087476, “Positive Charge-Concentrated Dimeric Lipopeptides with Enhanced Protease Resistance: A Potential Solution for Systemic Bacterial Infections” (J Med Chem, 2025):
Calls of active or inactive are those of the source. The calls are words filed in the database; no cut-off is given here.

Experiments:
Trypsin = Trypsin (Homo sapiens, UniProt P07477+P07478+P35030); experiment: Stability of compound assessed as trypsin (unknown origin)-mediated compound structural integrity change at 8 mg/ml incubated for 1 to 8 hrs by 16.5% tricine-SDS-PAGE analysis; assay type: ADME, protein assay; details: time 1-8 hrs
[1] = Stability of compound assessed as pepsin (unknown origin)-mediated compound structural integrity change at 8 mg/ml incubated for 1 to 8 hrs by 16.5% tricine-SDS-PAGE analysis; assay type: ADME; details: human, time 1-8 hrs
Escherichia coli [2] = experiment: Antibiofilm activity against Escherichia coli ATCC 25922 biofilm assessed as removal of matured biofilm at 16 uM; assay type: functional, organism-based
Escherichia coli [3] = experiment: Induction of membrane damage in Escherichia coli ATCC 25922 assessed as damaged membrane surface by analysing leakage (hollow interiors) at 8 uM measured after 1 hr incubation by TEM analysis; assay type: functional, organism-based
Mus musculus = experiment: Anti-inflammatory activity against Escherichia coli ATCC 25922-induced peritonitis ICR mouse model assessed as decrease in TNF-alpha level in serum spleen at 10 mg/kg, ip measured after 12 hrs; assay type: functional, organism-based

CCCCCCCCCC(=O)NCCCC[C@H](N)C(=O)NCC(=O)NCC(=O)NCC(=O)N[C@H](CCCNC(=N)N)C(=O)N[C@@H](CCCNC(=N)N)C(=O)N[C@@H](CCCNC(=N)N)C(=O)N1CCC[C@H]1C(=O)N[C@@H](CSSC[C@H](NC(=O)[C@@H]1CCCN1C(=O)[C@H](CCCNC(=N)N)NC(=O)[C@H](CCCNC(=N)N)NC(=O)[C@@H](CCCNC(=N)N)NC(=O)CNC(=O)CNC(=O)CNC(=O)[C@@H](N)CCCCNC(=O)CCCCCCCCC)C(=O)O)C(=O)O
Stability (Trypsin): Stable | Stability [1]: Stable | Activity (Escherichia coli [2]): Active | Activity (Escherichia coli [3]): Active | Activity (Mus musculus): Active
